Data set [1] deals with Enterobacter cloacae FADDI-EC001. The data set is classed as cell-based. To be noted: FADDI-EC001. In short, it runs like this: (§1)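 Lipopeptide TFA salts were serially diluted in cation-adjusted Mueller-Hinton broth, inoculated with polymyxin-susceptible Gram-negative bacteria and scored for MIC according to CLSI guidance (M100-S24). Polymyxin B sulphate was included as comparator.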

In data set [2] the test system is Acinetobacter baumannii ATCC 17978. The data set is classed as cell-based. To be noted: ATCC 17978. In short, it runs like this: as §1
Data set [3] has as its system Acinetobacter baumannii FADDI-AB034. Type of data set: cell-based. To be noted: FADDI-AB034. In short, it runs like this:
as §1

The test system of data set [4] is Pseudomonas aeruginosa FADDI-PA038. Type of data set: cell-based. The settings on record: FADDI-PA038. The method, boiled down: as §1
Data set [5] deals with Klebsiella pneumoniae Kp BM1. The data set is classed as cell-based. The settings on record: Kp BM1. The method, boiled down: as §1
Data set [6] has as its system Enterobacter cloacae FADDI-EC003. The data set is classed as cell-based. To be noted: FADDI-EC003. The method, boiled down: as §1
For data set [7], the system named is Pseudomonas aeruginosa ATCC 27853. Type of data set: cell-based. To be noted: ATCC 27853. In short, it runs like this:
as §1

In data set [8] the test system is Pseudomonas aeruginosa FADDI-PA01. The data set is classed as cell-based. The settings on record: FADDI-. The method, boiled down:
as §1

The subject of data set [9] is Klebsiella pneumoniae FADDI-KP022. The data set is classed as cell-based. To be noted: FADDI-KP022. In short, it runs like this:
as §1

Data set [10] concerns Pseudomonas aeruginosa FADDI-PA022. Type of data set: cell-based. The settings on record: FADDI-PA022. The method, boiled down:
as §1

For data set [11], the system named is Klebsiella pneumoniae FADDI-KP032. The data set is classed as cell-based. To be noted: FADDI-KP032. The method, boiled down: as §1
The subject of data set [12] is Enterobacter cloacae FADDI-EC006. Type of data set: cell-based. To be noted: FADDI-EC006. In short, it runs like this:
as §1

For the next data set, the system named is mouse kidney. To be noted: in vivo, 180 mg/kg. From the text: Lesions were rated as follows: mild acute tubular damage with tubular dilation, prominent nuclei and a few pale tubular casts (Grade 1); severe acute tubular damage with necrosis of tubular epithelial cells and numerous tubular casts (Grade 2); acute cortical necrosis/infarction of tubules and glomeruli with or without papillary necrosis (Grade 3). The grades were given the following scores: grade 1=1, grade 2=4, and grade 3=10. The percentage of area of the kidney slice showing histological damage was scored as follows: <1%=0, 1 to <5%=1, 5 to <10%=2, 10 to <20%=3, 20 to <30%=4, 30 to <40%=5, and >40%=6. The overall kidney histological score was calculated as the product of the percentage score and grade score. These scores were then expressed as a semiquantitative score (Kidney Histological Score) on a scale of 0 to +5 for renal histological changes. […]
Lung infection was produced as follows. […] Bacterial burdens in lungs were determined at 2 h after inoculation (untreated controls) and 24 h later (untreated controls and compound-treated mice). […] The bacterial colonies on the agar plate were counted and the log10 CFU/lung in each mouse was calculated (FIG. 1).
The right kidney from each of the treated animals was removed and assessed for histological damage as described for Example 3. […]

Structures are written as SMILES. In brackets after ≈: the same amount, converted by molar mass. Where a SMILES comes first, the peptide text is derived from it. Bridges are numbered along the chain shown (N, C = ends). [ ]: non-standard residue; d: D form. The star is where a group is joined. X1 = O=C(c1ncc(Cl)cc1Cl)*; Dab = NCC[C@H](N)C(=O)O; Abu = CC[C@H](N)C(=O)O; Dap = NC[C@H](N)C(=O)O Bounds are passed on as bounds.

For `CC[C@@H]1NC(=O)[C@@H](CC(C)C)NC(=O)[C@H](CCN)NC(=O)[C@@H](NC(=O)[C@H](CN)NC(=O)[C@@H](NC(=O)[C@H](CCN)NC(=O)c2ncc(Cl)cc2Cl)[C@@H](C)O)CCNC(=O)[C@H]([C@@H](C)O)NC(=O)[C@H](CCN)NC(=O)[C@H](CCN)NC1=O` [Compound 1] (X1-[Dab]T[Dap][Dab][Dab][dL][Abu][Dab][Dab]T; lactam 4-C), the Minimum inhibitory concentration in data set [1] is below 0.125 µg/mL; in data set [2], 2 µg/mL (≈ 1.72 µM); in data set [3], 2 µg/mL (≈ 1.72 µM); in [4], 1 µg/mL (≈ 0.861 µM); in data set [5], 0.25 µg/mL (≈ 0.215 µM); in data set [6], 2 µg/mL (≈ 1.72 µM). The Minimum inhibitory concentration in data set [7] is 0.5 µg/mL (≈ 0.431 µM); in data set [8], 0.5 µg/mL (≈ 0.431 µM); in [9] it was below 0.125 µg/mL; in data set [10], 1 µg/mL (≈ 0.861 µM); in [11] it was 0.5 µg/mL (≈ 0.431 µM); in [12] it was 0.5 µg/mL (≈ 0.431 µM). In addition, the “histological damage to the kidneys (in words)” value with mouse kidney is “no histological damage”.
